Read-outs that look alike come from different tables or passages of the source.
Legend:
Format in all cases: biochemical
[1] = target: T1, 320 wild-type protein kinases (Homo sapiens, UniProt Q13470); details: kinase TNK1, singlicate
T1 sequence (Q13470 1-666): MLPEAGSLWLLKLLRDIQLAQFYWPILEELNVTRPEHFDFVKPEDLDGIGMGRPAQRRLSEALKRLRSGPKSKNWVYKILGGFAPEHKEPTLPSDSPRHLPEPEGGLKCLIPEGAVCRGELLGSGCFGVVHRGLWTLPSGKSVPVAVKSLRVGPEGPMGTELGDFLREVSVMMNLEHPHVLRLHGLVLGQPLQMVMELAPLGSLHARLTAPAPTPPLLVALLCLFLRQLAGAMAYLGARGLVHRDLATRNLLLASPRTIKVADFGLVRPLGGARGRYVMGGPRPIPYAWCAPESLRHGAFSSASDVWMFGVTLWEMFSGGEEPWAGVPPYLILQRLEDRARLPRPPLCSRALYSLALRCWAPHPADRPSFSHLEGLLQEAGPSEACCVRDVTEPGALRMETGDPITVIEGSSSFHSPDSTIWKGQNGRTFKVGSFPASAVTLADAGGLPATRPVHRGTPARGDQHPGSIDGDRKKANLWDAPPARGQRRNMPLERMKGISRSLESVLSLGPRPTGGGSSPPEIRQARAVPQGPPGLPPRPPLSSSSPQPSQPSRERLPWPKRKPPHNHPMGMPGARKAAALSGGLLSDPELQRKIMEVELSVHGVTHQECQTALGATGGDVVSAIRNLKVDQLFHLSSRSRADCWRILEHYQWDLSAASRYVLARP
Text: (§1) Table S4. Profiling of two compounds at two concentrations against 320 wild-type protein kinases; singlicate measurement; Residual activities (% of control).

[2] = target: T2, 320 wild-type protein kinases (Homo sapiens, UniProt Q9BXA7); details: kinase TSSK1, singlicate
T2 sequence (Q9BXA7 1-367): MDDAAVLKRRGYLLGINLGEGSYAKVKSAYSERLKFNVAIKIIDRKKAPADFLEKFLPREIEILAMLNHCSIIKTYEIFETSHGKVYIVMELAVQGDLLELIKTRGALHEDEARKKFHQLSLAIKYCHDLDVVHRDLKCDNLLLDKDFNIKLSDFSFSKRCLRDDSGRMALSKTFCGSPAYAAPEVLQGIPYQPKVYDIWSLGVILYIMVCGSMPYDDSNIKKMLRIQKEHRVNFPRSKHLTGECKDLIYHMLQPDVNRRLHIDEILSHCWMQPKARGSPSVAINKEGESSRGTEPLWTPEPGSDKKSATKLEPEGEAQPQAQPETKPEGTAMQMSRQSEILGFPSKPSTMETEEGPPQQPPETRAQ
Text: as §1

[3] = target: 320 wild-type protein kinases (Homo sapiens, UniProt P45983); details: singlicate
Sequence of 320 wild-type protein kinases (Homo sapiens, UniProt P45983) (P45983 whole entry): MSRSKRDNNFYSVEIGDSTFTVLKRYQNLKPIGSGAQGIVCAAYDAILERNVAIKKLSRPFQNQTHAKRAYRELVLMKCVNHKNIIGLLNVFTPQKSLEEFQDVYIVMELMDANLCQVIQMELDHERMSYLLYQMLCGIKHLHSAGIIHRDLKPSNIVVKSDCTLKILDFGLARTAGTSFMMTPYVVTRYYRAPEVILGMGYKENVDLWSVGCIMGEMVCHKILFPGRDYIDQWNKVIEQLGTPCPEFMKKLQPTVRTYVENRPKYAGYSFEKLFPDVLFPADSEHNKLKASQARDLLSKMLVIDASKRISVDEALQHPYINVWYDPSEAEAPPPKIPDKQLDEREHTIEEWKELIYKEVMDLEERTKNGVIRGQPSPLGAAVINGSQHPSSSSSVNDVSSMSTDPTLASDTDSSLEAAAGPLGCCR
Text: as §1

[4] = target: 320 wild-type protein kinases (Homo sapiens, UniProt Q9H4A3); details: kinase WNK1, singlicate
Sequence of 320 wild-type protein kinases (Homo sapiens, UniProt Q9H4A3) (Q9H4A3 whole entry): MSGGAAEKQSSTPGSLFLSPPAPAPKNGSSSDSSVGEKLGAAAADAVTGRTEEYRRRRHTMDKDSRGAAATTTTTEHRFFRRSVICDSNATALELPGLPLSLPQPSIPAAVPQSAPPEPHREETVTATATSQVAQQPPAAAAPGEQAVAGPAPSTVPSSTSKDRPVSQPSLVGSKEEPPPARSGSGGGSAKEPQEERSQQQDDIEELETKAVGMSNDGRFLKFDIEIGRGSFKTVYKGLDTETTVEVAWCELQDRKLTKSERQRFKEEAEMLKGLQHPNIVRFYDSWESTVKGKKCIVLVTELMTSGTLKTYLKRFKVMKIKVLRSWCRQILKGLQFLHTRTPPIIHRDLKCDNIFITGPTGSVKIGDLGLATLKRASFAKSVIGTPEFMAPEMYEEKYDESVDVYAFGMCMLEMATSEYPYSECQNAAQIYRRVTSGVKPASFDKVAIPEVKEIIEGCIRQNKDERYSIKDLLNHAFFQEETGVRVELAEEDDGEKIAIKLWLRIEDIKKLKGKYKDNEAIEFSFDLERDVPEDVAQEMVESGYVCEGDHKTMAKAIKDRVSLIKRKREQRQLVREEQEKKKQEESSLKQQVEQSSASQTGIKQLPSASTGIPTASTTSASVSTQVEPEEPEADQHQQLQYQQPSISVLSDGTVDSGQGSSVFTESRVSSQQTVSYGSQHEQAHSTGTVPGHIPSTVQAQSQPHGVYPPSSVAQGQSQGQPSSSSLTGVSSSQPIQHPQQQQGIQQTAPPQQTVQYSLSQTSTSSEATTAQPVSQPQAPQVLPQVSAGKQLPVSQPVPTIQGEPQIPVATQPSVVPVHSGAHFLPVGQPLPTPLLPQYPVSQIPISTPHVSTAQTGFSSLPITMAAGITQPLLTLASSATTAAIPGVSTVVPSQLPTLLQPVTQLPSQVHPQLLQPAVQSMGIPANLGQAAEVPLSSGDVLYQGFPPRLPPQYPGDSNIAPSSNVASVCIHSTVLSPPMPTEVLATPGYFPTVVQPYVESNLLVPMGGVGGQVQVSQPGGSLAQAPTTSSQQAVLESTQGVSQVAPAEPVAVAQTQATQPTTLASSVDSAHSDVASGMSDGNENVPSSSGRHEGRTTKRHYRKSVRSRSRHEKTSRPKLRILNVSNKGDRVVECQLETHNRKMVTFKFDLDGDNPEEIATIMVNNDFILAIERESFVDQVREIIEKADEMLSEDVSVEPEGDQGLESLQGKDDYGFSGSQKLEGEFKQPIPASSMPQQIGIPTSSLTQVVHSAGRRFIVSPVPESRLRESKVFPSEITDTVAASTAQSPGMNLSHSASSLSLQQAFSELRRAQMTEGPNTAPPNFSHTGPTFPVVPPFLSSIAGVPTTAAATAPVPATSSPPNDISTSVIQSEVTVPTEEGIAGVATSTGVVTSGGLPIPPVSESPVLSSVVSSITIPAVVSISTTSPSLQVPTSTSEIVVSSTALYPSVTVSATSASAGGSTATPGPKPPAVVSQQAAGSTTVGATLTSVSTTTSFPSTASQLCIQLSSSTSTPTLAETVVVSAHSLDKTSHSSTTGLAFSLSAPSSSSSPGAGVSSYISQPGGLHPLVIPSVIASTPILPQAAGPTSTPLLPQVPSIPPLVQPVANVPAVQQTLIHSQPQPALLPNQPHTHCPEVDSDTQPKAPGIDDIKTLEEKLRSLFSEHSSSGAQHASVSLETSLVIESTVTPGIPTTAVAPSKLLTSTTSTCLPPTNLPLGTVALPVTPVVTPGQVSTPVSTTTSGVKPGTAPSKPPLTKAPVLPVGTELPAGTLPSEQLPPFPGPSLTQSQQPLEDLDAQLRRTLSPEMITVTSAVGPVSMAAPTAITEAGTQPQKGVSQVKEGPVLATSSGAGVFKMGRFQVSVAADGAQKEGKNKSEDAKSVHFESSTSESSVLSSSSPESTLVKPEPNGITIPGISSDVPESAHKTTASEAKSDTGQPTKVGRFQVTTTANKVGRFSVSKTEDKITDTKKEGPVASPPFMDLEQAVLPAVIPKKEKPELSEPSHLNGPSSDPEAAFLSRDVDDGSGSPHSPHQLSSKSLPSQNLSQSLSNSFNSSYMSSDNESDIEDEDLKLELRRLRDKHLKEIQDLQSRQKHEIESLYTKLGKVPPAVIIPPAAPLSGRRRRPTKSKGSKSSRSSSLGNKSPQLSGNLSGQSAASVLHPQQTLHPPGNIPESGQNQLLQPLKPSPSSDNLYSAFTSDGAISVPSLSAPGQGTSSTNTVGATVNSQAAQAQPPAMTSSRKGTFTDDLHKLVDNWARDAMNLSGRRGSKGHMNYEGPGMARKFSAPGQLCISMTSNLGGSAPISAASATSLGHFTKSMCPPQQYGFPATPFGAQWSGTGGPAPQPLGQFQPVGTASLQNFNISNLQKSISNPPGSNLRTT
Text: as §1

[5] = target: T3, 320 wild-type protein kinases (Homo sapiens, UniProt Q99683); details: singlicate
T3 sequence (Q99683 1-1374): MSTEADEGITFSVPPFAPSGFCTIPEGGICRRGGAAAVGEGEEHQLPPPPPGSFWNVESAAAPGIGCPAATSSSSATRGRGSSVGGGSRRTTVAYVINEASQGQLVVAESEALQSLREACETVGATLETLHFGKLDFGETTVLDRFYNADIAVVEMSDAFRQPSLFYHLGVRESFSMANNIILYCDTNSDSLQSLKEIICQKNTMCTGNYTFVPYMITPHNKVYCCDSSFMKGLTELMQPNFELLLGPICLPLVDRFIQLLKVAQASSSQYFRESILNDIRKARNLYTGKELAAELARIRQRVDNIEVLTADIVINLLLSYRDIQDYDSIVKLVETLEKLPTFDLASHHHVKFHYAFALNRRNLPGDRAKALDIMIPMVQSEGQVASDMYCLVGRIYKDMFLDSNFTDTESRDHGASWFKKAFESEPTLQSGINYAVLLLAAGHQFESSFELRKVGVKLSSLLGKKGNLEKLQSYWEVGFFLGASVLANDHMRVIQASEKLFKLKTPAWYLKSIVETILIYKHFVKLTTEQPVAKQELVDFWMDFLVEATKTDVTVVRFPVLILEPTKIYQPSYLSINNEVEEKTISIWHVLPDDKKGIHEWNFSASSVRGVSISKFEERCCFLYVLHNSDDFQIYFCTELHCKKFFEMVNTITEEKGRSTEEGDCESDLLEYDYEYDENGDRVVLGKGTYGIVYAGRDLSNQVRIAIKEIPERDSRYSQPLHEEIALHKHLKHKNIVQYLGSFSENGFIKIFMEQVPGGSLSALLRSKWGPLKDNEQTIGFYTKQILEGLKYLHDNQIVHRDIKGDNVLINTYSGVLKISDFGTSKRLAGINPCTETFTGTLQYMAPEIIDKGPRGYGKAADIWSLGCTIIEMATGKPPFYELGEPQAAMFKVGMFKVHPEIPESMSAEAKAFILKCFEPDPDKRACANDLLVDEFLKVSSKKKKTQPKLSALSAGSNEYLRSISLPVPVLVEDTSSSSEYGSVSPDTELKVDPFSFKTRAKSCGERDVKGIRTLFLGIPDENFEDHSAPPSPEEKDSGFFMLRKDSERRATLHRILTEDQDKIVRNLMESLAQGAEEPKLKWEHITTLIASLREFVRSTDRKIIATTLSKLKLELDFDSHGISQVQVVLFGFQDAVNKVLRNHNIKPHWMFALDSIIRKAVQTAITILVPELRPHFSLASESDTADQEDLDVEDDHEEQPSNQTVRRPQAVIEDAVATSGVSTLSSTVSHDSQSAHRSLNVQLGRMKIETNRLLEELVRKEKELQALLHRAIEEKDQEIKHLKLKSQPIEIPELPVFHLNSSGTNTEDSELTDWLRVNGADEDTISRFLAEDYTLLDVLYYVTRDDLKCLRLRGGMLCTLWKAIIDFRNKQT
Text: as §1

Row | SMILES | Residual activity, TNK1 ([1]; assay conc. 1.0E-06 M) | Residual activity, TNK1 ([1]; assay conc. 1.0E-07 M) | Residual activity, TSSK1 ([2]; assay conc. 1.0E-06 M) | Residual activity, TSSK1 ([2]; assay conc. 1.0E-07 M) | Residual activity ([3]; JNK1, 1.0E-06 M) | Residual activity ([3]; JNK1, 1.0E-07 M) | Residual activity, WNK1 ([4]; assay conc. 1.0E-06 M) | Residual activity, WNK1 ([4]; assay conc. 1.0E-07 M) | Residual activity ([5]; ASK1, 1.0E-06 M) | Residual activity ([5]; ASK1, 1.0E-07 M)
1 | C#Cc1cc(Nc2ncnc3cc(I)ccc23)ccc1Cl [Compound 41] | 112 % of control | 130 % of control | 105 % of control | 142 % of control | 91 % of control | 90 % of control | 70 % of control | 84 % of control | 99 % of control | 95 % of control
2 | C#Cc1cc(Nc2ncnc3cc(OC)c(OC)cc23)ccc1Cl [Compound 45] | 83 % of control | 117 % of control | 111 % of control | 127 % of control | 94 % of control | 113 % of control | 95 % of control | 93 % of control | 99 % of control | 93 % of control

From publication PMC9329436, “Optimization of the 4-anilinoquin(az)oline scaffold as epidermal growth factor receptor (EGFR) inhibitors for chordoma utilizing a toxicology profiling assay platform” (Scientific Reports, 2022)
